Our source for the IC50 values is ChEMBL document CHEMBL1125224, “Examination of HIV-1 protease secondary structure specificity using conformationally constrained inhibitors” (J Med Chem, 1991).

In this test the target is Human immunodeficiency virus type 1 protease (Human immunodeficiency virus 1, UniProt Q72874). The test can be described thus: Concentration required to inhibit HIV-1 protease activity calculated from plots of % inhibition vs inhibitor concentration.
The term IC50 denotes the point on the concentration scale where inhibition reaches its midpoint. Consider `CC[C@H](C)[C@H](NC(=O)C[C@H](O)[C@H](CC1CCCCC1)NC(=O)CC1C=CCN2C(=O)CCC(CNCc3ccccc3)C(=O)N12)C(=O)N[C@@H](Cc1ccccc1)C(=O)O` (stereo not given in full), for which the IC50 was 360 µM.
Then `CC[C@H](C)[C@H](NC(=O)C[C@H](O)[C@H](CC(C)C)NC(=O)CC1C=CCN2C(=O)CCC(CNCc3ccccc3)C(=O)N12)C(=O)N[C@@H](Cc1ccccc1)C(=O)OC` (stereo not given in full), with 140 µM; and `CCC(C)[C@H](NC(=O)C[C@H](O)[C@H](Cc1ccccc1)NC(=O)CC1C=CCN2C(=O)CCC(CNCc3ccccc3)C(=O)N12)C(=O)N[C@@H](Cc1ccccc1)C(=O)OC` (stereo not given in full), with 350 µM; and `CCC(C)[C@H](NC(=O)C[C@H](O)[C@H](CC1CCCCC1)NC(=O)CC1CCCN2C(=O)CCC(CN)C(=O)N12)C(=O)N[C@@H](Cc1ccccc1)C(N)=O` (stereo not given in full), with 0.026 µM.
With `CCC(C)[C@H](NC(=O)C[C@H](O)[C@H](CC(C)C)NC(=O)CC1C=CCN2C(=O)CCC(CNCc3ccccc3)C(=O)N12)C(=O)N[C@@H](Cc1ccccc1)C(N)=O` (stereo not given in full) the figure was 21 µM.
